Test results published in patent US20030219866A1, “Stem cell-like cells” (priority 2000, published 2003).

Assays:
Assay type in all cases: cell-based
[1] = test system: human Neural Progenitor Cells; assay: OCT4 expression after TSA treatment in hNPC (RT-PCR); set-up: key to OCT4 expression: +/− expression detectable; (+) clear expression; (++ strong expression); conditions: for OCT4 expression: hNPC, RT-PCR
Experimental: (§1) (a) RNA isolation and eDNA synthesis. At the time of harvest, medium was aspirated and cells were lyzed using Ultraspec™ (Biotecx) or Trizol® (Gibco BRL). RNA was isolated according to the instructions of the suppliers. RNA concentration was determined by measuring OD260 and equal amounts of RNA of the indicated cell lines were subjected to conversion into cDNA. RNA was reversed transcribed using random primers and 15 units M-MuLV (Promega) in a reaction mixture containing 4 μl 25 mM MgCl2, 2 μl of each of the four dNTPs at 10 mM and 0.5 μl RNasin (Promega) in a total volume of 20 μl. RNA and 0.5 μg random hexamers were pre-incubated for 10 minutes at 55-60°. Mixtures were incubated at 37° C. for 1 hour.
(§2) (b) PCR reactions. PCR was were performed using 2 μl cDNA, 2.5 μl 10× SuperTaq buffer (without magnesium), 0.25 μl forward primer, 0.25 μl reverse primer, 0.50 μl 10 mM dNTPs, 1.25 Units of SuperTaq polymerase. In the case of β2-microglobulin 1.5 mM MgCl2 was added to the reaction mixture. For mouse UTF1 PCR, normal Taq polymerase (Roche) was used with a buffer containing MgCl2. The conditions for the PCR reaction were: 5 minutes 94° C.; 28 cycles of 30 seconds 94° C., 30 seconds 60° C. and 30 seconds 72° C.; 10 minutes 72° C., using a PTC-200, Peltier Thermal cycler. PCR-fragments were run on a 2% agarose gel and visualized by ethidium bromide staining.
(§3) HDAC activity is inhibited by Trichostatin A (TSA). Human mesenchymal stem cells and mouse and human neuronal progenitor cells were treated by TSA at concentration of 10 and 50 ng/ml. After 24 and 48 hours, OCT4 expression was analyzed by RT-PCR.

TSA treated cells = assay: UTF1 expression and TGF-beta/activin/BMP responsiveness of TSA treated cells
[2] = test system: mouse Neural Progenitor Cells; assay: OCT4 expression after TSA treatment in mNPC (RT-PCR); set-up: key to OCT4 expression: +/− expression detectable; (+) clear expression; (++ strong expression); conditions: for OCT4 expression: mNPC (eGFP/bcl2), RT-PCR
Experimental: as §1, §2, §3

[3] = test system: human Mesenchymal Stem Cells; assay: OCT4 expression after TSA treatment in hMSC (RT-PCR); set-up: key to OCT4 expression: +/− expression detectable; (+) clear expression; (++ strong expression); conditions: for OCT4 expression: hMSC, RT-PCR
Experimental: as §1, §2, §3

What does the source list for CC(/C=C/C(=O)NO)=C\[C@@H](C)C(=O)c1ccc(N(C)C)cc1 [TSA, Trichostatin A]?
OCT4 expression ([1]; TSA 10 ng/ml, 24 hours): +; OCT4 expression ([1]; TSA 10 ng/ml, 48 hours): ++; OCT4 expression ([1]; TSA 50 ng/ml, 24 hours): +; SSEA4 expression ([1]; human Neural Progenitor Cells, TSA treated, in parallel with upregulation of OCT4): increased; expression of OCT4 ([1]; human Neural Progenitor Cells, TSA treatment for 24 to 48 hours): enhances; TGF-beta, activin and BMP responsiveness (TSA treated cells): reduction; expression of UTF1 (TSA treated cells): increased; OCT4 expression ([2]; TSA 10 ng/ml, 24 hours): +; OCT4 expression ([2]; TSA 10 ng/ml, 48 hours): ++; OCT4 expression ([2]; TSA 50 ng/ml, 24 hours): +; expression of OCT4 ([2]; mouse neural progenitor cells, TSA treatment for 24 to 48 hours): enhances; OCT4 expression ([3]; TSA 10 ng/ml, 24 hours): +; OCT4 expression ([3]; TSA 10 ng/ml, 48 hours): ++; OCT4 expression ([3]; TSA 50 ng/ml, 24 hours): +; OCT4 expression ([3]; TSA 50 ng/ml, 48 hours): ++; SSEA4 expression ([3]; human MSC, TSA treated, in parallel with upregulation of OCT4): increased; expression of OCT4 ([3]; human MSC, TSA treatment for 24 to 48 hours): enhances
